Measured values: US8217073B2, “Pyrrole derivatives as therapeutic compounds” (Myrexis, Inc., priority 2005, dated 2012)
pIC50: −log10 of the molar value. Where “and” joins values, the source holds several entries; their conditions need not be identical. Equal values may be shown once. Read-outs that look alike come from different tables or passages of the source.

Assays:
Aβ42 [1] = settings: transgenic mouse model; cited from earlier work
COX = settings: cited from earlier work
Aβ42 [2] = settings: CHO cells; cited from earlier work
Aβ42 secretion = Aβ42 secretion by H4 cells expressing APP695, sandwich ELISA; format: cell-based, human; settings: medium collected at 24 or 48 hours, several numbers = independent sets of assays; for pIC50: about 1 μM to about 100 μM; for inhibition at 100 µM / % Inhibition of Aβ42 Secretion @ 100 μM: test compound 100 μM vs DMSO control
Protocol: (§1) The present invention provides compositions and methods for lowering Aβ42 levels. To test whether compounds and compositions are capable of modulating Aβ levels in cultured cells, sandwich enzyme-linked immunosorbent assays (ELISAs) are employed to measure secreted Aβ (Aβ42 and/or Aβ40 levels). In this example, H4 cells expressing wide type APP695 are seeded at 200,000 cells per well in 6 well plates, and incubated at 37° C. with 5% CO2 overnight. Cells are treated with 1.5 ml medium containing vehicle (DMSO) or a test compound at 1.25 μM, 2.5 μM, 5.0 μM and 10.0 μM (as well as other concentration if desirable) for 24 hours or 48 hours. The supernatant from treated cells is collected into eppendorf tubes and frozen at −80° C. for future analysis.
(§2) The amyloid peptide standard is reconstituted and frozen samples are thawed. The samples and standards are diluted with appropriate diluents and the plate is washed 4 times with Working Wash Buffer and patted dry on a paper towel. 100 μL per well of peptide standards, controls, and dilutions of samples to be analyzed is added. The plate is incubated for 2 hours while shaking on an orbital plate shaker at RT. The plate is then washed 4 times with Working Wash Buffer and patted dry on a paper towel. Detection Antibody Solution is poured into a reservoir and 100 μL/well of Detection Antibody Solution is immediately added to the plate. The plate is incubated at RT for 2 hours while shaking and then washed four times with Working Wash Buffer and patted dry on a paper towel. Secondary Antibody Solution is then poured into a reservoir and 100 μL/well of Secondary Antibody Solution is immediately added to the plate. The plate is incubated at RT for 2 hours with shaking, washed 5 times with Working Wash Buffer, and patted dry on a paper towel.
(§3) 100 μL of stabilized chromogen is added to each well and the liquid in the wells begins to turn blue. The plate is incubated for 30 minutes at room temperature and in the dark. 100 μL of stop solution is added to each well and the plate is tapped gently to mix resulting in a change of solution color from blue to yellow. The absorbance of each well is read at 450 nm having blanked the plate reader against a chromogen blank composed of 100 μL each of stabilized chromogen and stop solution. The plate is read within 2 hours of adding the stop solution. The absorbance of the standards is plotted against the standard concentration and the concentrations of unknown samples and controls are calculated.
(§4) The present invention provides compositions and methods for lowering Aβ42 levels. To test whether compounds and compositions are capable of modulating Aβ levels, sandwich enzyme-linked immunosorbent assays (ELISAs) is employed to measure secreted Aβ42 and/or Aβ40 levels. In this example, H4 cells expressing wide type APP695 are seeded at 200,000 cells per well in 6 well plates, and incubated at 37° C. with 5% CO2 overnight. Cells are treated with 1.5 mL medium containing vehicle (DMSO) or a test compound at 1.25 μM, 2.5 μM, 5.0 μM and 10.0 μM concentration for 24 hours or 48 hours. The supernatant from treated cells is collected into eppendorf tubes and frozen at −80° C. for future analysis.
(§5) 130 μL per well of samples, standards, and blanks is added to a 96-well polypropylene plate. […] of samples, standards, and blanks from the polypropylene plate is added to the antibody-coated plates. The strip-holder with the appropriate number of strips is applied to the antibody-coated plates and the strips are covered with an adhesive sealer. The plate is then incubated 3 hours at room temperature while shaking on an orbital plate shaker.
(§6) The first antibody solution is prepared with Conjugate Diluent 1 at 1:100 ratio. Each well of the antibody-coated plates is washed 5 times with 400 μL washing solution and 100 μL of the prepared first antibody solution is added to each well. […]

Aβ40 secretion = Aβ40 secretion by H4 cells expressing APP695, sandwich ELISA; format: cell-based, human; settings: medium collected at 24 or 48 hours, several numbers = independent sets of assays; for pIC50: about 1 μM to about 100 μM; for inhibition at 100 µM / % Inhibition of Aβ40 Secretion @ 100 μM: test compound 100 μM vs DMSO control
Protocol: as §1, §2, §3, §4, §5, §6

Compound | Aβ42 lowering (Aβ42 [1]) | inhibition of COX activity (COX) | Aβ42 lowering (Aβ42 [2]) | pIC50 (Aβ42 secretion; Homo sapiens) | inhibition at 100 µM (Aβ42 secretion; Homo sapiens) [%] | pIC50 (Aβ40 secretion; Homo sapiens) | inhibition at 100 µM (Aβ40 secretion; Homo sapiens) [%] | % Inhibition of Aβ42 Secretion @ 100 μM (Aβ42 secretion) [%] | % Inhibition of Aβ40 Secretion @ 100 μM (Aβ40 secretion) | pIC50 (Aβ42 secretion) | pIC50 (Aβ40 secretion)
C[C@@H](C(=O)O)c1ccc(-c2ccccc2)c(F)c1 [R-Flurbiprofen] | lower Aβ42 | negligibly inhibits COX activity | lower Aβ42 | – | – | – | – | – | – | – | –
Cc1c(-c2ccccc2)cc(-c2ccccc2)n1-c1cccc(CCC(=O)O)c1 [Compound 5, 3-[3-(2-Methyl-3,5-diphenyl-pyrrol-1-yl)-phenyl]-propionic acid] | – | – | – | 4.00 | 55 | < 4.00 | 31 | – | – | – | –
Cc1c(-c2ccccc2)cc(-c2ccc(Cl)c(Cl)c2)n1-c1cccc(CCC(=O)O)c1 [Compound 18, 3-{3-[5-(3,4-Dichloro-phenyl)-2-methyl-3-phenyl-pyrrol-1-yl]-phenyl}-propionic acid] | – | – | – | 5.00 | 94 | < 4.00 | 41 | – | – | – | –
O=C(O)CCCc1ccc(-n2cc(-c3ccccc3)cc2-c2ccccc2)cc1 [Compound 7, 4-[4-(2,4-Diphenyl-pyrrol-1-yl)-phenyl]-butyric acid] | – | – | – | 4.28 | 76 | < 4.00 | 7 | – | – | – | –
Cc1c(-c2ccccc2)cc(-c2ccccc2)n1-c1cccc(OCC(=O)O)c1 [Compound 26, [3-(2-Methyl-3,5-diphenyl-pyrrol-1-yl)-phenoxy]-acetic acid] | – | – | – | 4.68 | 147 | 4.38 | 94 | – | – | – | –
CC(C)c1c(-c2ccccc2)cc(-c2ccccc2)n1-c1cccc(C(=O)O)c1 [Compound 30, 3-(2-Isopropyl-3,5-diphenyl-pyrrol-1-yl)-benzoic acid] | – | – | – | 4.82 | 99 | 4.66 | 101 | – | – | – | –
Cc1c(-c2cccc(C(F)(F)F)c2)cc(-c2ccccc2)n1-c1cccc(C(=O)O)c1 [Compound 8, 3-[2-Methyl-5-phenyl-3-(3-trifluoromethyl-phenyl)-pyrrol-1-yl]-benzoic acid] | – | – | – | – | 94 | – | – | 80 | 88% and 64% | – | –
CCOC(=O)c1cc(CCc2ccccc2)n(-c2ccc(CCCC(=O)O)cc2)c1-c1ccccc1 [Compound 22, 1-[4-(3-Carboxy-propyl)-phenyl]-5-phenethyl-2-phenyl-1H-pyrrole-3-carboxylic acid ethyl ester] | – | – | – | 4.26 | 68 | 4.40 | 65 | – | – | – | –
CC(C)c1c(-c2ccccc2)cc(-c2ccccc2)n1-c1cccc(CCC(=O)O)c1 [Compound 31, 3-[3-(2-Isopropyl-3,5-diphenyl-pyrrol-1-yl)-phenyl]-propionic acid] | – | – | – | 4.68 | 95 | 4.64 | 106 | – | – | – | –
Cc1c(-c2ccccc2)cc(-c2ccccc2)n1-c1ccc(OCCC(=O)O)cc1 [Compound 28, 3-[4-(2-Methyl-3,5-diphenyl-pyrrol-1-yl)-phenoxy]-propionic acid] | – | – | – | 4.10 | 55 | < 4.49 | 32 | – | – | – | –
CC(C)(C)Cc1c(-c2ccccc2)cc(-c2ccccc2)n1-c1cccc(C(=O)O)c1 [Compound 36, 3-[2-(2,2-Dimethyl-propyl)-3,5-diphenyl-pyrrol-1-yl]-benzoic acid] | – | – | – | 5.10 | 99 | 4.54 | 103 | 101 | 96% | 5.15 | 4.72
CCc1c(-c2ccccc2)cc(-c2ccccc2)n1-c1ccc(CCCC(=O)O)cc1 [Compound 13, 4-[4-(2-Ethyl-3,5-diphenyl-pyrrol-1-yl)-phenyl]-butyric acid] | – | – | – | 4.92 | 83 | < 4.00 | 14 | – | – | – | –
O=C(O)CCCc1ccc(-n2c(-c3ccccc3)cc(-c3ccccc3)c2C2CCCCC2)cc1 [Compound 29, 4-[4-(2-Cyclohexyl-3,5-diphenyl-pyrrol-1-yl)-phenyl]-butyric acid] | – | – | – | 4.85 | 102 | 4.48 | 103 | – | – | – | –
CCOC(=O)c1cc(CCc2ccccc2)n(-c2cccc(C(=O)O)c2)c1-c1ccccc1 [Compound 20, 1-(3-Carboxy-phenyl)-5-phenethyl-2-phenyl-1H-pyrrole-3-carboxylic acid ethyl ester] | – | – | – | 4.68 | 95 | < 4.00 | 49 | – | – | – | –
O=C(O)c1cccc(-n2c(CCc3ccccc3)ccc2-c2ccccc2)c1 [Compound 23, 3-(2-Phenethyl-5-phenyl-pyrrol-1-yl)-benzoic acid] | – | – | – | 4.64 | 77 | 4.15 | 67 | – | – | – | –
O=C(O)CCCc1ccc(-n2c(CCc3ccccc3)ccc2-c2ccccc2)cc1 [Compound 25, 4-[4-(2-Phenethyl-5-phenyl-pyrrol-1-yl)-phenyl]-butyric acid] | – | – | – | < 4.00 | 40 | < 4.00 | 30 | – | – | – | –
Cc1c(-c2ccccc2)cc(-c2ccccc2)n1-c1ccc(Cl)c(C(=O)O)c1 [Compound 3, 2-Chloro-5-(2-methyl-3,5-diphenyl-pyrrol-1-yl)-benzoic acid] | – | – | – | 4.43 | 89 | 4.01 | 52 | – | – | – | –
COc1ccc(C(=O)O)cc1-n1c(-c2ccccc2)cc(-c2ccccc2)c1C [Compound 4, 4-Methoxy-3-(2-methyl-3,5-diphenyl-pyrrol-1-yl)-benzoic acid] | – | – | – | 4.54 | 84 | < 4.00 | 22 | – | – | – | –
